# ChEMBL document CHEMBL3507680, “University of Dundee, Gates Library screen for HepG2 cell viability”
# Experiment: Human HepG2 cell viability assay in 384 well format
# Assay type: toxicity, cell-based
# Parameters: dose 125 nL, time 70.5 hour; concentration not given beside the values
# Conditions: HepG2 cells, read-out: Inhibition
row,SMILES,cytotoxicity at 70.5 h
1,Cc1nc(CCCNC(=O)c2c(F)cc(F)cc2F)n[nH]1,-7.17%
2,O=C(c1nn[nH]c1Nc1cccc(Cl)c1)N1CCSCC1,26.2%
3,Cc1ncc(CN(C)c2nc3c(cnn3C(C)(C)C)c(=O)[nH]2)s1,11.8%
4,CC(C)c1nn(C)c(N(C)C)c1CNC(C)c1ccccc1F (centres undefined),-1.04%
5,COc1ccc(CN2CCN(c3ncc(Cl)cn3)CC2)cc1,13.2%
6,O=c1[nH]cnc2[nH]c(N3CCOCC3)nc12,26.5%
7,CCn1ccnc1CN1CCC(Oc2ccccc2F)(C(=O)O)CC1,-0.995%
8,CN(C)C(c1ccccn1)[C@H]1CC[C@H](CNC(=O)C2CC2)CC1 (some centres undefined),1.46%
9,O=C(c1ccoc1)N1CCc2c(COCc3ccncc3)cncc2C1,8.95%
10,CC(C)CCN(CCC(C)C)Cc1nc2c(cnn2C)c(=O)[nH]1,2.1%
11,CN1CCCC2(CCN(C(=O)c3ccncc3)C2)C1 (centres undefined),7.77%
12,Cc1cccc(C(=O)NC2CCN(c3cnn(C)c3)C2=O)n1 (centres undefined),12.5%
13,Cc1cnn(CC2CCCN2C(=O)c2cccc(F)c2F)c1 (centres undefined),-1.26%
14,O=C(Nc1nc(-c2ccccc2)ns1)N1CC[C@H](O)C1,-9.25%
15,Cc1noc(C)c1CN1C[C@H]2CN(Cc3cccc(F)c3)C[C@H]2C1,-1.37%
16,CC(=O)Nc1ccc2nc(CN(C)Cc3snnc3C)ccc2c1,-9.42%
17,CN1CCN(C(=O)C2CN(Cc3cc4ccccc4o3)CCN2)CC1 (centres undefined),-3.72%
18,CCNC(=O)[C@@H]1C[C@@H](N)CN1Cc1ccc(Sc2ccc(C)cc2)o1,-4.77%
19,CN(CC(N)=O)C(=O)c1csc(Br)c1,-7.59%
20,COc1ncccc1CN1CC[C@H]2O[C@H](c3nnc(C)o3)CC[C@H]21,-11.5%
21,COC1COC2(CCN(CC3CC3)CC2)C1 (centres undefined),-12.5%
22,Cc1cnc(CN2CCN(c3ccnc(-c4ccccc4)n3)CC2)cn1,-10.6%
23,CC(C)n1ccnc1CN1CCCN(C(=O)c2cc(Cl)c[nH]2)CC1,-3.72%
24,O=C(Cc1ccsc1)N1CCCC(CNS(=O)(=O)Cc2ccccc2)C1 (centres undefined),-9.34%
25,O=C(COc1cccc(F)c1)N1C[C@@H](CN2CCCC2)C[C@H](CO)C1,0.446%
26,CC(=O)N1CCc2[nH]cnc2C12CCN(C(=O)CCn1cccn1)CC2,1.39%
27,COCc1nc(C(=O)NS(=O)(=O)c2ccc(C)cc2C)cs1,-11.1%

row,SMILES,cytotoxicity at 70.5 h
1,Cc1cccc(C(=O)N2C[C@@H](OCc3cccnc3)[C@H]3OCCC[C@@H]32)n1,-1.75%
2,Cc1ccc(S(=O)(=O)N2CCN(CCCn3ccnc3)CC2)cc1,-1.75%
3,Cc1nc(CN2CCCC(NCc3sccc3C)C2)no1 (centres undefined),-2.7%
4,COC(=O)CC(NC(=O)c1cccc(CS(C)(=O)=O)c1)c1cccs1 (centres undefined),-4.71%
5,CCn1nc(C)c(CCn2ccnc2-c2cc3n(n2)CCNC3)c1C,-0.934%
6,COc1ccc(C(C)NC(=O)Nc2nnc(C)s2)c(OC)c1 (centres undefined),-4.87%
7,Cc1ccc(N2CCN(C(=O)CN3C[C@@H]4CC[C@H]3C4)CC2=O)cc1,24.1%
8,COc1cccc(S(=O)(=O)CCN2CCN(CC(F)F)CC2)c1,1.26%
9,COCCc1nc(CSc2ccncc2)n(C)n1,1.99%
10,CCn1cnnc1CNC(=O)N1CCN(c2cccc(OC)c2)CC1,-6.51%
11,c1ccc(NCc2ccsc2)c(Cn2cncn2)c1,-15.1%
12,CC(C)(C)N1CCN(C(=O)c2cccnc2-n2cncn2)CC1,0.2%
13,CS(=O)(=O)N1CCc2sc(C(=O)NCCc3ccccn3)cc21,-10.9%
14,CCOCC(=O)NCCc1nc(C2CC2)cc(C(F)(F)F)n1,-4.83%
15,CS(=O)(=O)Nc1ccn(Cc2ccc(Cl)cc2)n1,10.5%
16,COc1ccc(C(=O)N2CC[C@@]3(O)CCCC[C@H]3C2)cc1OC,5.36%
17,CNC(=O)CC1CCN(C(=O)NCc2cn3c(C)cccc3n2)CC1,-14.3%
18,NC(=O)CN1CCc2c(Br)ccc(F)c2C1,3.38%
19,COc1c(CNCCc2c[nH]c3cc(F)ccc23)c(C(C)C)nn1C,4.03%
20,Cc1csc(N2CCN(Cc3ccccn3)CC2)n1,-9.56%
21,O=C([C@H]1COC[C@H]2CN(C3CCCC3)C[C@H]21)N1CCCO1,41.4%
22,O=C(NCCCn1ccnc1)c1cccnc1OCC(F)(F)F,4.36%
23,O=C(c1cc(F)cc(F)c1)N1C[C@H]2CNC[C@H]2C1,-13.4%
24,Clc1cc(Cl)cc(CN2CCC(NCc3ncc[nH]3)CC2)c1,-4.36%
25,COc1ccc(CNCC(C)Oc2ccccn2)cc1Cl (centres undefined),-8.86%
26,CC(NC(=O)N1CCC[C@H]1CO)c1noc(-c2ccccc2)n1 (some centres undefined),-3.8%
27,Cc1cc(CN2C[C@H]3CC[C@@H]2CN(Cc2c(C)noc2C)C3)ccc1F,-5.96%

row,SMILES,cytotoxicity at 70.5 h
1,Cn1nccc1C(=O)NCCN1CCC(O)(c2ccc(F)cc2)CC1,7.28%
2,O=C(O)c1ccc2[nH]cc(CN3CCOCC3)c2c1,2.68%
3,O=C(CCN1C(=O)CCC1=O)Nc1ccc(Oc2ccc(Cl)cc2)nc1,-10.7%
4,Cc1cc(C(=O)N2CCCC(C)C2)ccc1NCC(=O)N1CCOCC1 (centres undefined),-2.64%
5,Cn1c(C(F)(F)F)nn(CCNC(=O)c2cnc3ccccc3n2)c1=O,-2.86%
6,OCc1cccc(CNCc2cccc3c2OCCO3)c1,-1.29%
7,CC1CCCN(C(=O)c2nnn(-c3ccc(C(F)(F)F)cc3)n2)C1 (centres undefined),1.4%
8,Cc1cc(CC(=O)N2CCN(C)[C@@H]3CS(=O)(=O)C[C@@H]32)ccc1F,-4.31%
9,CN(C)S(=O)(=O)N1CC[C@]2(O)CCN(c3nccs3)C[C@@H]2C1,21.2%
10,O=C(c1ccc2c(c1)OCCCO2)N1CCCC(n2cccn2)C1 (centres undefined),0.26%
11,Cc1cnc(CNC(=O)NC2CCCN(c3ccccc3F)C2)s1 (centres undefined),-3.86%
12,CCC[C@@H]1CN(S(=O)(=O)c2ccc3[nH]c(=O)[nH]c3c2)C[C@H]1NC(C)=O,-1.53%
13,O=c1c(NCc2ccccn2)c(NCC(O)CN2CCOCC2)c1=O (centres undefined),-12.9%
14,COc1ccc2c(c1)C(=O)NC1(CC2)CCN(Cc2cccnc2)C1 (centres undefined),-2.38%
15,O=C(CN1CCCCC1Cn1cncn1)Nc1ccncc1 (centres undefined),3.49%
16,N#Cc1cccnc1NCCNC(=O)N1CCN2CCCCC2C1 (centres undefined),13.6%
17,COc1ccc(Cl)cc1S(=O)(=O)N(C)CC(=O)Nc1ccccc1,-9.85%
18,O=C(NCc1cc(=O)n2c(n1)CN(CC1CCOC1)CCC2)C1CC1 (centres undefined),-4.46%
19,Cc1nc2ccnn2c(C)c1CCC(=O)N1CCN2CCCCC2C1 (centres undefined),-9.21%
20,COCCN1CCc2cc(C(=O)NC(C)C)c(NCC3CC3)nc2CC1,-0.245%
21,COCCNC(=O)[C@@H]1CN(Cc2sccc2C)C[C@H]2OCC[C@H]21,-2.35%
22,CCc1ccc(S(=O)(=O)NCC2CCN(c3cnccn3)CC2)s1,-10.3%
23,COc1ccc(C[C@H]2CN(C(=O)c3ccncc3)CC[C@@H]2OC)cc1,18.8%
24,CC(C)CCN1C2(CCN(C(=O)C3(C)CC3)C2)c2ccccc2S1(=O)=O (centres undefined),-9.44%
25,CCC1CN(C(=O)c2ccc(Cl)cc2O)CCN1C(C)C (centres undefined),-6.93%
